Source: publication PMC6408276 (ACS infectious diseases, 2019)
Values joined by “and” are separate entries in the source; they are usually repeats but may differ in a detail not shown here. Identical values can stand only once.

Experiments:
[1] = system: Colombiana strain of Trypanosoma cruzi; assay: Mouse model of T. cruzi infection: parasitemia, survival and natural relapse; type: in vivo
[2] = system: Colombiana strain of Trypanosoma cruzi; assay: Assessment of therapeutic failure after cyclophosphamide immunosuppression; type: in vivo; conditions: for Blood parasite load determined by qPCR: n=5, after cyclophosphamide; for Blood parasite load determined by qPCR / % Negative blood qPCR: VFV in 10 % DMSO plus 5 % Gum Arabic; for % Negative blood qPCR: surviving mice n=5, after cyclophosphamide; for % Blood parasite clearence (negative qPCR): n=10, after cyclophosphamide immunosuppression, VFV in DGAT
[3] = PK studies in mice after single oral administration; type: in vivo; conditions: for Life time (time until compound becomes undetectable, below 0.1 μM): mice plasma; for Life time (time until compound becomes undetectable, below 0.1 μM) / Bioavailability when Tween 80 was added to the vehicle (DGAT vs HPCD): single oral 25 mg/kg; for Bioavailability when Tween 80 was added to the vehicle (DGAT vs HPCD): mice; for Tmax: mouse, po, 25 mg/kg
[4] = cited from earlier work
CYP3A4 = conditions: read-out: CYP3A4 IC50; cited from earlier work
NIH/3T3 = conditions: cited from earlier work
[5] = cited from earlier work; remark: listed apart in the source
[6] = cited from earlier work; remark: listed apart in the source
[7] = Swiss male mice n=5, 60 days po, VNI and VFV in 10 % DMSO plus 5 % Gum Arabic
[8] = Swiss male mice n=10, 60 days po, VFV in DGAT

SMILES | % Animal survival [1, 7] [%] | % Parasitemia suppression [1, 7] [%] | Natural relapse after the therapy [1, 7] | Blood parasite load determined by qPCR [2] | Sustained negative parasitemia after cyclophosphamide (light microscopy) ([2]; n=5, 10 % DMSO plus 5 % Gum Arabic vehicle) [%] | % Negative blood qPCR [2] [%] | Life time (time until compound becomes undetectable, below 0.1 μM) ([3]; DGAT formulation) [h] | Life time (time until compound becomes undetectable, below 0.1 μM) ([3]; HPCD formulation) [h] | Bioavailability when Tween 80 was added to the vehicle (DGAT vs HPCD) [3] | Tmax ([3]; plasma) [h] | Maximal concentration in mice plasma [4] [µM] | IC50 (CYP3A4) [µM] | % Animal survival [1, 8] [%] | % Parasitemia suppression [1, 8] [%] | Natural relapse after the therapy [1, 8] | % Blood parasite clearence (negative qPCR) [2] [%] | Tmax ([3]; in vivo) [h] | EC25 (cellular toxicity) (NIH/3T3) [µM] | Hepatic clearance [5] | NOAEL (in vivo toxicity) [6] [mg/kg]
O=C(N[C@@H](Cn1ccnc1)c1ccc(Cl)cc1Cl)c1ccc(-c2nnc(-c3ccccc3)o2)cc1 [VNI, (R)-N-(1-(2,4-dichlorophenyl)-2-(1H-imidazol-1-yl)ethyl)-4-(5-phenyl-1,3,4-oxadi-azol-2 yl)benzamide] | 100 | 99.9 | 3 out of five and 3 out of 5 mice | 372 ± 528 | 20 | 20 | 16 | 10 | three-fold higher bioavailability | 2 | – | – | – | – | – | – | – | – | – | –
O=C(N[C@@H](Cn1ccnc1)c1ccc(-c2ccc(F)cc2)cc1F)c1ccc(-c2nnc(-c3ccccc3)o2)cc1 [VFV, (R)-N-(1-(3,4′-difluorobiphenyl-4-yl)-2-(1H-imidazol-1-yl)ethyl)-4-(5-phenyl-1,3,4oxadiazol-2-yl)benzamide] | 100 | – | all animals and 5 out of 5 mice | 905 ± 854 | – | 0 | – | <24 | three-fold higher bioavailability | – | – | 3.6 | 100 | 99.8 | 5 mice and 5 out of 10 mice | 0 | 4 | > 50 | moderate hepatic clearance | > 200
O=C(Cn1ccnc1[N+](=O)[O-])NCc1ccccc1 [Bz, benznidazole, reference compound] | 100 | – | all animals and 5 out of 5 mice | 13038 ± 13612 | – | 0 | – | – | – | – | – | – | 100 | – | 6 mice and 6 out of 10 mice | 30 | – | – | – | –
